Data: ChEMBL document CHEMBL4732077, “Potent and orally active purine-based fetal hemoglobin inducers for treating β-thalassemia and sickle cell disease” (Eur J Med Chem, 2021)

Columns and labels:
[1] = Induction of gamma-globin gene expression in human erythrocytes at 0.83 uM after 3 days by RT-PCR analysis relative to control; type: functional, Erythrocyte; conditions: time 3 day
[2] = Cytotoxicity against human erythrocytes assessed as cell viability at 0.83 uM after 3 days alamar blue assay relative to control; type: cell-based, Erythrocyte; conditions: time 3 day, read-out: Activity
[3] = Induction of gamma-globin gene expression in human erythrocytes at 10 uM after 3 days by RT-PCR analysis relative to control; type: functional, Erythrocyte; conditions: time 3 day
[4] = Cytotoxicity against human erythrocytes assessed as cell viability at 10 uM after 3 days alamar blue assay relative to control; type: cell-based, Erythrocyte; conditions: time 3 day, read-out: Activity
[5] = Induction of gamma-globin gene expression in human erythrocytes at 1.25 uM after 3 days by RT-PCR analysis relative to control; type: functional, Erythrocyte; conditions: time 3 day
[6] = Cytotoxicity against human erythrocytes assessed as cell viability at 1.25 uM after 3 days alamar blue assay relative to control; type: cell-based, Erythrocyte; conditions: time 3 day, read-out: Activity
[7] = Induction of gamma-globin gene expression in human erythrocytes at 250 uM after 3 days by RT-PCR analysis relative to control; type: functional, Erythrocyte; conditions: time 3 day
[8] = Cytotoxicity against human erythrocytes assessed as cell viability after 3 days alamar blue assay; type: cell-based, Erythrocyte; conditions: time 3 day
[9] = Induction of gamma-globin gene expression in human erythrocytes at 0.625 uM after 3 days by RT-PCR analysis relative to control; type: functional, Erythrocyte; conditions: time 3 day
[10] = Cytotoxicity against human erythrocytes assessed as cell viability at 0.625 uM after 3 days alamar blue assay relative to control; type: cell-based, Erythrocyte; conditions: time 3 day, read-out: Activity
[11] = Induction of gamma-globin gene expression in human erythrocytes at 15 uM after 3 days by RT-PCR analysis relative to control; type: functional, Erythrocyte; conditions: time 3 day
[12] = Cytotoxicity against human erythrocytes assessed as cell viability at 15 uM after 3 days alamar blue assay relative to control; type: cell-based, Erythrocyte; conditions: time 3 day, read-out: Activity
[13] = Induction of gamma-globin gene expression in human erythrocytes at 0.1 uM after 3 days by RT-PCR analysis relative to control; type: functional, Erythrocyte; conditions: time 3 day
[14] = Cytotoxicity against human erythrocytes assessed as cell viability at 0.1 uM after 3 days alamar blue assay relative to control; type: cell-based, Erythrocyte; conditions: time 3 day, read-out: Activity
[15] = Half life in Sprague-Dawley rat at 2 mg/kg, iv measured upto 24 hrs by LC-MS/MS analysis; type: ADME, organism-based; conditions: in vivo
[16] = Clearance in Sprague-Dawley rat at 2 mg/kg, iv measured upto 24 hrs by LC-MS/MS analysis; type: ADME, organism-based; conditions: in vivo
[17] = Volume of distribution at steady state in Sprague-Dawley rat at 2 mg/kg, iv measured upto 24 hrs by LC-MS/MS analysis; type: ADME, organism-based; conditions: in vivo, read-out: Vdss
[18] = AUC (0 to infinity) in Sprague-Dawley rat at 2 mg/kg, iv measured upto 24 hrs by LC-MS/MS analysis; type: ADME, organism-based; parameters: route intravenous, dose 2 mg/kg, time <=24; conditions: in vivo
[19] = Water solubility of compound at pH 7.4 after 24 hrs by LC/MS analysis; type: physicochemical; conditions: buffer, pH 7.4, 24 h
[20] = Induction of gamma-globin gene expression in human erythrocytes at 5 uM after 3 days by RT-PCR analysis relative to control; type: functional, Erythrocyte; conditions: time 3 day
[21] = Cytotoxicity against human erythrocytes assessed as cell viability at 5 uM after 3 days alamar blue assay relative to control; type: cell-based, Erythrocyte; conditions: time 3 day, read-out: Activity
[22] = Induction of gamma-globin gene expression in human erythrocytes at 0.4 uM after 3 days by RT-PCR analysis relative to control; type: functional, Erythrocyte; conditions: time 3 day
[23] = Cytotoxicity against human erythrocytes assessed as cell viability at 0.4 uM after 3 days alamar blue assay relative to control; type: cell-based, Erythrocyte; conditions: time 3 day, read-out: Activity

## CCN1CCN(c2nc(Nc3cccc(C(=O)N[C@@H]4C[C@H]4c4ccccc4)c3)c3ncn(CC)c3n2)CC1
[1]
  fold change (FC): 1.3
[2]
  viability at 72 h, 0.83 µM: 71%

## CCN1CCN(c2nc(Nc3cccc(NC(=O)N4CCN(c5ccc(F)cc5)CC4)c3)c3ncn(CC)c3n2)CC1
[3]
  fold change (FC): 2.2
[4]
  viability at 72 h, 10 µM: 8%

## CCN1CCN(c2nc(Nc3cccc(NC(=O)/C=C/c4ccccc4)c3)c3ncn(CC)c3n2)CC1
[5]
  fold change (FC): 2.3
[6]
  viability at 72 h, 1.25 µM: 128%

## CCN1CCN(c2nc(Nc3cccc(NC(=O)[C@@H]4C[C@H]4c4ccccc4)c3)c3ncn(CC)c3n2)CC1
[5]
  fold change (FC): 1.1
[6]
  viability at 72 h, 1.25 µM: 77%

## Cc1ccc(C#CC(=O)Nc2cccc(Nc3ncnc4oc(-c5ccccc5)nc34)c2)cc1
[3]
  fold change (FC): 1.2
[4]
  viability at 72 h, 10 µM: 103%

## CCCC(=O)[O-].[Na+] [SODIUM BUTYRATE]
[7]
  fold change (FC): 1.3
[8]
  CC50 at 72 h: 222 µM

## CCN1CCN(c2nc(Nc3cccc(C(=O)Nc4ccc(-c5ccccc5)cc4)c3)c3ncn(CC)c3n2)CC1
[9]
  fold change (FC): 0.84
[10]
  viability at 72 h, 0.625 µM: 105%

## CCn1cnc2c(Nc3cccc(NC(=O)C#Cc4ccc(C)cc4)c3)ncnc21
[11]
  fold change (FC): 4.1
[12]
  viability at 72 h, 15 µM: 75%

## CCn1cnc2c(Nc3cccc(NC(=O)C#Cc4ccc(C)cc4)c3)nc(N3CCN(CCO)CC3)nc21
[5]
  fold change (FC): 4.6
[6]
  viability at 72 h, 1.25 µM: 58%

## CCn1cnc2c(Nc3cccc(NC(=O)C#Cc4ccc(C)cc4)c3)nc(N[C@H]3CC[C@H](O)CC3)nc21
[13]
  fold change (FC): 1.4
[14]
  viability at 72 h, 0.1 µM: 61%
[15]
  half-life: 10.2 h
[16]
  clearance: 60.9 mL/min/kg
[17]
  Vd: 3.8 L/kg
[18]
  AUC(0-inf): 610 ng·h/mL
[19]
  solubility: < 0.01 µg/mL

## CCn1cnc2c(Nc3cccc(NC(=O)C#Cc4ccc(C)cc4)c3)nc(N3CCN(CCF)CC3)nc21.Cl.Cl
[20]
  fold change (FC): 4.6
[21]
  viability at 72 h, 5 µM: 50%

## CCn1cnc2c(Nc3cccc(NC(=O)C#Cc4ccc(C)cc4)c3)nc(OCCN3CCOCC3)nc21
[22]
  fold change (FC): 2.6
[23]
  viability at 72 h, 0.4 µM: 78%

## Cc1ccc(C#CC(=O)Nc2cccc(Nc3nc(N[C@H]4CC[C@H](O)CC4)nc4ccccc34)c2)cc1
[5]
  fold change (FC): 1.8
[6]
  viability at 72 h, 1.25 µM: 46%

## CCn1cnc2c(Nc3cccc(NC(=O)C#Cc4ccc(C)cc4)c3)nc(N3CCC(N(C)C)CC3)nc21.Cl.Cl
[9]
  fold change (FC): 1.7
[10]
  viability at 72 h, 0.625 µM: 75%

## CCn1cnc2c(Nc3cccc(NC(=O)C#Cc4ccc(C)cc4)c3)nc(N3CCC(N(C)C)C3)nc21 (configuration not stated)
[5]
  fold change (FC): 1.5
[6]
  viability at 72 h, 1.25 µM: 53%

## Cc1ccc(C#CC(=O)Nc2cccc(Nc3nc(N[C@H]4CC[C@H](O)CC4)nc4scnc34)c2)cc1
[3]
  fold change (FC): 0.87
[4]
  viability at 72 h, 10 µM: 19%
